{"source": "patent US9944643B2", "about": "“Factor XIa inhibitors” (MERCK SHARP & DOHME CORP., priority 2014, dated 2018)", "data": [{"molecular_target": "purified human Factor XIa (Homo sapiens (Human), UniProt P03951)", "sequence (P03951 whole entry, looked up)": "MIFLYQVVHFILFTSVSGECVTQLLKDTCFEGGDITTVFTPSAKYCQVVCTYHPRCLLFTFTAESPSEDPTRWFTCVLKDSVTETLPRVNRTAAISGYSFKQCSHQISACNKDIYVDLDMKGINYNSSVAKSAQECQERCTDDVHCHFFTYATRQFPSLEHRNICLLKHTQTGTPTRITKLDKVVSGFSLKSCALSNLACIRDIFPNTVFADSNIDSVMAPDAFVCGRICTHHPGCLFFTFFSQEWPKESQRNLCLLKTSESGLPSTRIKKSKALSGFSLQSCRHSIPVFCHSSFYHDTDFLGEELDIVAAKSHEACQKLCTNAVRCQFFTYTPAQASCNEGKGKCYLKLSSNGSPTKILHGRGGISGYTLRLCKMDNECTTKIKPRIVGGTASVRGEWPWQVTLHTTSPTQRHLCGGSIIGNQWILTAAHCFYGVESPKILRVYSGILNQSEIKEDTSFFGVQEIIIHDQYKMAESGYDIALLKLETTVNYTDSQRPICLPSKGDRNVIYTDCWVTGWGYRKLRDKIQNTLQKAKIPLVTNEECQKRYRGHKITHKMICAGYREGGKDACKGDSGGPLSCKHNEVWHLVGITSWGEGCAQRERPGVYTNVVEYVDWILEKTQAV", "sequence (P03951 whole entry partner, looked up)": "as the sequence (P03951 whole entry, looked up) above", "test": "Factor XIa Assay", "format": "biochemical", "experimental": "The effectiveness a of compound of the present invention as an inhibitor of Coagulation Factor XIa can be determined using a relevant purified serine protease, and an appropriate synthetic substrate. The rate of hydrolysis of the chromogenic or fluorogenic substrate by the relevant serine protease was measured both in the absence and presence of compounds of the present invention. Assays were conducted at room temperature or at 37° C. […] A decrease in the rate of fluorescence change in the presence of inhibitor is indicative of enzyme inhibition. Such methods are known to one skilled in the art. The results of this assay are expressed as the inhibitory constant, Ki.\nFactor XIa determinations were made in 50 mM HEPES buffer at pH 7.4 containing 150 mM NaCl, 5 mM CaCl2, and 0.1% PEG 8000 (polyethylene glycol; J T Baker or Fisher Scientific). Determinations were made using purified human Factor XIa at a final concentration of 40 pM (Sekisui Diagnostics) and the synthetic substrate, Z-Gly-Pro-Arg-AFC, TFA salt (Sigma #C0980) at a concentration of 100 μM.\nActivity assays were performed by diluting a stock solution of substrate at least tenfold to a final concentration ≤0.1 Km into a solution containing enzyme or enzyme equilibrated with inhibitor. Times required to achieve equilibration between enzyme and inhibitor were determined in control experiments. Initial velocities of product formation in the absence (Vo) or presence of inhibitor (Vi) were measured. Assuming competitive inhibition, and that unity is negligible compared Km/[S], [I]/e, and [I]/e (where [S], [I], and e respectively represent the total concentrations, of substrate, inhibitor and enzyme), the equilibrium constant (Ki) for dissociation of the inhibitor from the enzyme can be obtained from the dependence of Vo/Vi on [I] shown in the following equation. Vo/Vi=1+[I]/Ki", "units": {"Ki": "nM"}, "values": [{"smiles": "COC(=O)Nc1ccc2c(c1)NC(=O)CCCC[C@H](NC(=O)c1ccc(CN)c(C3CC3)c1)c1nc-2c[nH]1", "note": "[Example 1, Methyl [(7S)-7-({[4-(aminomethyl)-3-cyclopropylphenyl]carbonyl}amino)-2-oxo-1,2,3,4,5,6,7,9-octahydro-11,8-(azeno)-1,9-benzodiazacyclotridecin-14-yl]carbamate]", "Ki": 0.1}, {"smiles": "COC(=O)Nc1ccc2c(c1)NC(=O)CCCC[C@H](NC(=O)c1cnc(CN)c(C3CC3)c1)c1nc-2c[nH]1", "note": "[Example 2]", "Ki": 1.1}, {"smiles": "COC(=O)Nc1ccc2c(c1)N[C@@H](C(=O)O)CCCC[C@H](NC(=O)c1ccc(CN)c(C3CC3)c1)c1nc-2c[nH]1", "note": "[Example 3]", "Ki": 0.1}, {"smiles": "COC(=O)Nc1ccc2c(c1)NC(=O)[C@@H](C)CCC[C@H](NC(=O)c1ccc(CN)c(C3CC3)c1)c1cc-2ccn1", "note": "[Example 4]", "Ki": 0.03}, {"smiles": "COC(=O)Nc1ccc2c(c1)NC(=O)CCCC[C@H](NC(=O)c1ccc(CN)c(C3CC3)c1)c1nc-2c(Cl)[nH]1", "note": "[Example 5]", "Ki": 0.05}, {"smiles": "CC(C)COC(=O)Nc1ccc2c(c1)NC(=O)[C@@H](C)CCC[C@H](NC(=O)c1ccc(CN)c(C3CC3)c1)c1cc-2ccn1", "note": "[Example 6]", "Ki": 0.2}, {"smiles": "C[C@H]1CCC[C@H](NC(=O)c2ccc(CN)c(C3CC3)c2)c2cc(ccn2)-c2ccc(NC(=O)OC3CCCC3)cc2NC1=O", "note": "[Example 7]", "Ki": 0.3}, {"smiles": "COCCOC(=O)Nc1ccc2c(c1)NC(=O)[C@@H](C)CCC[C@H](NC(=O)c1ccc(CN)c(C3CC3)c1)c1cc-2ccn1", "note": "[Example 8]", "Ki": 0.1}]}]}
